This note sets out measurements from publication PMC3615092, “Identification, Design and Bio-Evaluation of Novel Hsp90 Inhibitors by Ligand-Based Virtual Screening” (PLoS ONE, 2013).

For the assay, the target named is T1, Hsp90 (Homo sapiens, UniProt P07900).
T1 construct: The region encoding full-length Hsp90 was subcloned into pET28a; inferred from the pET28a vector and Ni-NTA purification; made in house; host or cells: E. coli
The experiment in a line: Malachite green assay of Hsp90 ATPase activity. It is filed as biochemical. The conditions noted are these: by malachite green assay. The protocol:
The region encoding full-length Hsp90 was subcloned into pET28a. Protein expression in E. coli cells were induced with 0.5 mM IPTG. Cells were harvested after 20h of growth at 16°C and then disrupted by sonication. The soluble lysate was clarified by centrifugation and applied to a Ni^2+-nitrilo-triacetic acid (NTA) agarose column in a buffer (50 mM Tris-Cl, 300 mM NaCl, 10 mM Imidazole, 10% [v/v] Glycerol, 10 mM PMSF, 10 mM DTT). Hsp90 Protein was eluted with a linear gradient of 20–1000 mM imidazole. Hsp90 was identified by SDS-PAGE, and the high concentrated fraction was dialyzed against ATPase buffer (20 mM Tris-Cl, pH 7.5; 6 mM MgCl2; 20 mM KCl) and then aliquoted, frozen in liquid nitrogen, stored at −80°C.
The test compounds were diluted from mother plates (10 mM in 100% (v/v) DMSO) into daughter plates (200 μM in 2.0% (v/v) DMSO); 5 μL of test compound solution was added to each well (equivalent to a final concentration of 40 μM) of the 96-well assay plate. The first and last rows of the 96-well plate contained the appropriate concentration of DMSO were used as blank control. ATP was dissolved in the assay buffer to give a stock concentration of 2.5 mM and stored at room temperature. A 10 μL aliquot of ATP solution was added to each well to give a final assay concentration of 1 mM. Before the usage, Hsp90 protein was thawed on ice and suspended in chilled assay buffer to a stock concentration of 0.45 mg/mL, and the solution was kept on ice. The incubation was started by adding 10 μL of the stock Hsp90 to each well (except for the background wells which received 10 μL of assay buffer), giving a final assay volume of 25 μL. The plates were shaken for approximately 2 min and incubated for 3 h at 37°C.
The assay procedures were based on the literatures [33]–[35]. […] The reagent is initially dark brown, but on standing for ∼2 h at room temperature changes to a golden yellow and is ready for use. The assay buffer was 100 mM Tris–HCl, 20 mM KCl, 6 mM MgCl2, pH 7.4.
To stop the ATPase reactions, 80 μL of the malachite green reagent was added to each well.

`COc1ccccc1N1CCN(CC(O)COCCOc2ccc(Br)cc2)CC1` (stereo not shown) [Compound S13] returned an IC50 of 3.89 ± 0.54 µM.

In general, IC50 refers to the concentration that gives 50% inhibition. Lower therefore signals higher potency.
